pEC50: −log10 of the molar value. Calls of active or inactive are those of the source.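 Rule for the calls: active = STAT3 activation with EC50 of 10 µM or lower; inactive = EC50 above 10 µM or none.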
system: U3A STAT3-luciferase reporter, IL-6 stimulated, luminescence; experiment: STAT3 activators in IL-6-treated reporter cells, late-stage follow-up, counter-screen for STAT1 activator project, U3A cells, luminescence, dose response, powder samples (AID 434940)

Question: For COc1ccc(-c2csc(N3C(=O)CNC3=S)n2)cc1, which EC50 is on record?
Answer: > 55.7 µM (inactive)

Question: O=C(Nc1nc2ccccc2s1)c1cc2ccccc2s1 was tested. Which EC50 did it give?
Answer: > 55.7 µM (inactive)

Question: COc1ccc2[nH]c3c(c2c1)CCn1c-3nc2ccccc2c1=O was tested. Which EC50 did it give?
Answer: > 18.6 µM (inactive)

Question: Which EC50 does the source give for Cc1nnc(SCC(=O)Nc2ccc(-c3nc4ccccc4s3)cc2)s1 here?
Answer: > 55.7 µM (inactive)

Question: CC(=O)NC(=S)Nc1sc2c(c1C#N)CCCCC2 was tested. Which EC50 did it give?
Answer: > 55.7 µM (inactive)

Question: With COc1ccc(-c2cc(C)nc3c(-c4ccccc4)cnn23)cc1 as the compound, how does the EC50 read?
Answer: > 55.7 µM (inactive)

Question: How did the EC50 turn out when Cc1ccc(C(=O)Nc2nc3ccccc3s2)s1 was run?
Answer: > 55.7 µM (inactive)

Question: How did the EC50 turn out when O=C(/C=C/Nc1ccccc1F)c1ccc(Br)cc1 was run?
Answer: > 55.7 µM (inactive)

Question: For Cc1cc(-c2ccncc2)n2ncc(-c3ccccc3)c2n1, which EC50 is on record?
Answer: > 55.7 µM (inactive)

Question: How did the pEC50 turn out when CCN(CC)c1ccc2cc(C(=O)Nc3ccccn3)c(=O)oc2c1 was run?
Answer: 6.09
